According to PMC11679724, “Novel Quinoline- and Naphthalene-Incorporated Hydrazineylidene–Propenamide Analogues as Antidiabetic Agents: Design, Synthesis, and Computational Studies” (Pharmaceuticals, 2024):

How the values were obtained:
[1] = biological target: T1, Porcine pancreatic amylase (Sus scrofa, UniProt P00690); experiment: In vitro α-amylase inhibition assay (starch substrate); assay type: biochemical; conditions: mean ± SE; starch 1%
T1 sequence (P00690 16-511): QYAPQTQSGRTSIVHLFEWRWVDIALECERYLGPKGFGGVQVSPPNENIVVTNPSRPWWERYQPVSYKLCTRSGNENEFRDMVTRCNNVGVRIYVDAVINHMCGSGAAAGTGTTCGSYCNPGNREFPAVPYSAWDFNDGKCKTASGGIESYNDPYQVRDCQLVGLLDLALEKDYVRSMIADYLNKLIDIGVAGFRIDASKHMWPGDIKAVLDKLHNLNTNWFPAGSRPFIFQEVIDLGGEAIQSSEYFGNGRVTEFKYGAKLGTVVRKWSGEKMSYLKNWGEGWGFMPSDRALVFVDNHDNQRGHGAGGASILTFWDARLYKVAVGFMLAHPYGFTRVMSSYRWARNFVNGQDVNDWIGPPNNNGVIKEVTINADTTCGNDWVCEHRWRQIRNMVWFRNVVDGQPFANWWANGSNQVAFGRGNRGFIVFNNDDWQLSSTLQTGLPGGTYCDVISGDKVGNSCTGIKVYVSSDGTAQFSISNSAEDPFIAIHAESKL
Experimental: (§1) Porcine pancreatic amylase, yeast α-glucosidase, and human recombinant aldose reductase were tested for enzyme inhibition using various substrates, such as starch (1%), pNPG (0.5 mM), and DL-glyceraldehyde (5 mM) for each enzyme. By comparing changes in the test sample absorbance levels to control values and computing inhibition percentages using the following formula, the degree of inhibition was ascertained: Inhibition (%) = [A×(control)] − [{A × (sample)}/{A × (control)} × 100].

[2] = biological target: human recombinant aldose reductase (Homo sapiens, UniProt P15121); experiment: In vitro aldose reductase inhibition assay (DL-glyceraldehyde substrate); assay type: biochemical
Experimental: as §1

[3] = test system: α-amylase (PDB-ID 1DHK); parameters: method as in doi:10.3390/separations9090262, PMID 35335251; conditions: docking of previous study; cited from earlier work
[4] = test system: aldose reductase (PDB ID: 1IEI); parameters: method as in doi:10.3390/separations9090262, PMID 35335251; conditions: docking of previous study; cited from earlier work
[5] = test system: α-glucosidase (PDB ID: 3A4A); parameters: method as in doi:10.3390/separations9090262, PMID 35335251; conditions: docking of previous study; cited from earlier work
[6] = mean ± SE, DL-glyceraldehyde 5 mM

Row | SMILES | IC50 [1] [µM] | IC50 [2, 6] [µM] | IC50 ([2]; µg/mL value restated in µM) [µM] | binding affinity against α-amylase [3] [kcal/mol] | binding affinity against aldose reductase [4] [kcal/mol] | binding affinity against α-glucosidase [5] [kcal/mol]
1 | O=C(O)/C=C/c1ccc(O)c(O)c1 [caffeic acid] |  |  |  | -8.1 | -7.4 | -8.2
2 | CCN/C(=N\NC(=O)COc1ccc2ccccc2c1)C(C#N)C(=O)Nc1ccc(C(C)=O)cc1 (centres unmarked) [Compound 7f, N-(4-acetylphenyl)-2-cyano-3-(ethylamino)-3-(2-(2-(naphthalen-2-yloxy)acetyl) hydrazineylidene)propenamide] | 61.8 | 42.8 |  |  |  | 
3 | CCNC(=NNC(=O)COc1ccc2ccccc2c1)C(C#N)C(=O)Nc1ccc(C(N)=O)cc1 (centres unmarked) [Compound 7c, 4-(2-cyano-3-(ethylamino)-3-(2-(2-(naphthalen-2-yloxy)acetyl)hydrazineylidene)propanamido)benzamide] | 57.1 | 50.8 |  |  |  | 
4 | CS/C(Nc1ccccc1)=C(\C#N)C(=O)Nc1ccc(C(N)=O)cc1 [Compound 5a] | 94 | 71.3 |  |  |  | 

Further lines, with some results ahead:

Row | IC50 [1] [µM] | IC50 [2, 6] [µM] | IC50 ([2]; µg/mL value restated in µM) [µM] | SMILES | binding affinity against α-amylase [3] [kcal/mol] | binding affinity against aldose reductase [4] [kcal/mol] | binding affinity against α-glucosidase [5] [kcal/mol]
5 | 37.3 | 40.6 |  | N#CC(C(=O)Nc1ccc(C(N)=O)cc1)C(=NNC(=O)COc1ccnc2ccccc12)Nc1ccccc1 (centres unmarked) [Compound 7b, 4-(2-cyano-3-(phenylamino)-3-(2-(2-(quinolin-4-yloxy)acetyl)hydrazineylidene)propanamido)benzamide] |  |  | 
6 | 36.3 | 25.7 | 25.8 | CCN/C(=N\NC(=O)COc1ccnc2ccccc12)C(C#N)C(=O)Nc1ccc(C(C)=O)cc1 (centres unmarked) [Compound 7g, N-(4-acetylphenyl)-2-cyano-3-(ethylamino)-3-(2-(2-(quinolin-4-yloxy)acetyl) hydrazineylidene)propenamide] |  |  | 
7 | 38.4 | 43 |  | CC(=O)c1ccc(NC(=O)C(C#N)/C(=N/NC(=O)COc2ccnc3ccccc23)Nc2ccccc2)cc1 (centres unmarked) [Compound 7e, N-(4-acetylphenyl)-2-cyano-3-(phenylamino)-3-(2-(2-(quinolin-4-yloxy)acetyl) hydrazineylidene)propenamide] |  |  | 
8 | 43.1 | 42.6 |  | N#CC(C(=O)Nc1ccc(C(N)=O)cc1)C(=NNC(=O)COc1ccc2ccccc2c1)Nc1ccccc1 (centres unmarked) [Compound 7a, 4-(2-cyano-3-(2-(2-(naphthalen-2-yloxy)acetyl)hydrazineylidene)-3-(phenylamino)propanamido)benzamide] |  |  | 
9 | 45.7 | 33.6 |  | CC(=O)c1ccc(NC(=O)C(C#N)/C(=N/NC(=O)COc2ccc3ccccc3c2)Nc2ccccc2)cc1 (centres unmarked) [Compound 7d, N-(4-acetylphenyl)-2-cyano-3-(2-(2-(naphthalen-2-yloxy)acetyl)hydrazineylidene)-3-(phenylamino)propenamide] |  |  | 
